Test results as given in US7763596B2, “Selective glucocorticoid receptor agonists” (The University of Manchester, priority 2000, dated 2010).
“Also recorded” adds a separate entry of the source.

Columns and labels:
[1] = biological target: T1, glucocorticoid receptor (Homo sapiens, UniProt P04150); experiment: Selectivity for transrepression over transactivation in vitro; assay type: cell-based; parameters: expressed in transfected cells; host or cells: COS 7 (African green monkey kidney, deficient in endogenous GR)
T1 sequence (P04150 1-777): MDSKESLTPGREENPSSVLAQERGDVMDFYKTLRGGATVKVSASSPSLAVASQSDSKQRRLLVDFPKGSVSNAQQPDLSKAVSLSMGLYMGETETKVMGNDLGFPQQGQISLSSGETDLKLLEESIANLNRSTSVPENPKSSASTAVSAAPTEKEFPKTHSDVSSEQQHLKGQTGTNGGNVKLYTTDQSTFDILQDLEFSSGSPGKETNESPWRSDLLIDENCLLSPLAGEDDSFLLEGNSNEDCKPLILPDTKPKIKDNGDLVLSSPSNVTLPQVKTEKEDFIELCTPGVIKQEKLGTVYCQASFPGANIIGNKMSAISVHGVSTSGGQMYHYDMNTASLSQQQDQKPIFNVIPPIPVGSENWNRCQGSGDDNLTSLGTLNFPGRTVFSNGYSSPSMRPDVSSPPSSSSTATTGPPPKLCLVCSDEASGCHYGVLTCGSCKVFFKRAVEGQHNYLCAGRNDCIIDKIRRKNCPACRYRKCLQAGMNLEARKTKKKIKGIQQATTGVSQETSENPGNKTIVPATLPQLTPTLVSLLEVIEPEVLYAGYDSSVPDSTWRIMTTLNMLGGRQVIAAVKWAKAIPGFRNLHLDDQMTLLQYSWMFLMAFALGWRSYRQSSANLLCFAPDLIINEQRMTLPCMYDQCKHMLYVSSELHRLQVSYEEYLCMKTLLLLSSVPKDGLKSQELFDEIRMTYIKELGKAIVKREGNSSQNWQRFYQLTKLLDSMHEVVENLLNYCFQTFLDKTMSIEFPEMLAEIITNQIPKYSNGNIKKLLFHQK

[2] = test system: tyrosine amino transferase (TAT); experiment: Quantitation of tyrosine amino transferase (TAT) in the livers of air pouch mice; assay type: in vivo; conditions: 3 μg i.p., FIG. 22
Protocol: At time 0, mice received either 0.5 ml of zymosan (1 mg) (group A, B, C) injected locally into the air-pouch. Group D and E were left untreated at this time-point. At 4 h post-zymosan the animals were placed in CO2. Air-pouches were then washed with 2 ml of PBS containing 3 mM EDTA, and livers were recovered and snap frozen for later analysis.
Quantitation of Tyrosine Amino Transferase (TAT) Protein in the Livers: In this method a colourimetric approach is used to quantitate TAT activity. The TAT enzyme catalyses the following reaction: L-tyrosine+2-oxoglutarate⇄4-hydroxyphenylpyruvate (pHPP)+L-glutamate
This reaction also requires pyridoxal phosphate (PLP) as a co-factor. Strong alkali conditions can then be used to convert pHPP to p-hydroxybenzaldehyde (pHBA) and oxalate. The amount of pHBA can then be assessed by measuring its absorbance at 331 nm (extinction coefficient 19,900 M^−1cm^−1) this figure is then assumed to be directly proportional to TAT activity. Livers were homogenized and the cells were stored on ice. […]
(§1) For each reaction a control reaction was set up without the ketoglutarate. […] The samples were incubated at room temperature for a further 30 mins and then the absorbance of each sample was assessed at 331 nm on a spectrophotometer (Ultrospec III, Pharmacia).

[3] = test system: other members of the steroid receptor super family; experiment: Binding to other members of the steroid receptor super family
[4] = test system: tyrosine amino transferase (TAT); experiment: Quantitation of endogenous tyrosine amino transferase (TAT) in the HEPG2 liver cell line; assay type: cell-based, human; conditions: HEPG2, 1 μM; p=0.014, two tailed t-test
Source text: The HEP G2 cell line (ECACC: 85011430) is derived from human liver epithelial cells from a well differentiated hepatocellular carcinoma. This cell line has functional endogenous GR and is stimulated by GR activation to produce tyrosine amino transferase.
In this method a colourimetric approach is used to quantitate TAT activity. The TAT enzyme catalyses the following reaction: L-tyrosine+2-oxoglutarate⇄4-hydroxyphenylpyruvate (pHPP)+L-glutamate
This reaction also requires pyridoxal phosphate (PLP) as a co-factor.
Strong alkali conditions can then be used to convert pHPP to p-hydroxybenzaldehyde (pHBA) and oxalate. The amount of pHBA can then be assessed by measuring its absorbance at 331 nm (extinction coefficient 19,900 M^−1cm^−1) this figure is then assumed to be directly proportional to TAT activity. HEPG2 cells were cultivated till confluent on a 10 cm plate (˜10^7 cells). These cells were then scraped off and suspended in 500 μl of ice cold 0.14M KCl. The cells were lysed by 3 cycles of 10 second burst sonication at full power (50 W, 20 kHz Sonicator; Jencons, Leighton Buzzard, UK). The cells were kept on ice between each burst. […]
as §1

[5] = biological target: T1, glucocorticoid receptor; experiment: Ligand binding competition assay, 3H Dexamethasone; parameters: Human HeLa 53 cells; endogenous in cells; conditions: Human HeLa 53 cells, 2 hours @25° C.
Protocol: Binding of compound G to the glucocorticoid receptor was investigated using a standard competition assay. The conditions were as follows:
IC50 values were determined by a non-linear, least squares regression The KI values were calculated using the equation of Cheng and Prusoff using the observed IC50 of the test compound, the concentration of radioligand employed in the assay, and the historic values for the Kd for the ligand. The Hill coefficient (nH), defined as the slope of the competitive binding curve, was calculated.

- selectivity for transrepression over transactivation [1]: approximately 1000 fold
SMILES: CCCNC(=O)C1(O)C(C)CC2C3CCC4=CC(=O)C=CC4(C)C3(F)C(O)CC21C (centres unmarked) [Compound G]
- liver TAT level compared with vehicle control groups [2]: does not cause-induction; also recorded: did not reduce the level of TAT
- binding to other members of the steroid receptor super family [3]: not to bind to other members of the steroid receptor super family
- TAT activity compared to dexamethasone [4]: significant reduction in TAT activity
- binding to the glucocorticoid receptor, competition with 3H Dexamethasone [5]: bound to the glucocoticoid receptor; also recorded: right shifted when compared to dexamethasone; also recorded: less potent ligand than dexamethasone
